Source: US20240245717A1, “ANTIVIRAL COMPOUNDS, COMPOSITIONS, AND USES THEREOF” (priority 2022, published 2024)
“And” between values parts separate entries of the source, which are not always exact repeats. Equal values may be shown once.

Tests used:
SARS-CoV-2 WAS-Calu-3 = system: SARS-CoV-2 WAS-Calu-3; parameters: species or system Golden Syrian Hamsters; settings: hamster, in vivo
[1] = system: Pseudovirus rVSV-SARS-CoV-2; experiment: microbe, parasite or virus in culture; assay type: cell-based; settings: for IC50: Pseudovirus, Vero, 24 h, read-out: NT50
[2] = system: SARS-CoV-2 isolate Hong Kong/VM20001061/2020; experiment: microbe, parasite or virus in culture; assay type: cell-based; parameters: % of control: dose or concentration left out as unconfirmed; settings: 48 hours

SMILES | body weight of infected, treated hamsters (SARS-CoV-2 WAS-Calu-3) | viral titers from harvested lungs (SARS-CoV-2 WAS-Calu-3) | neutralization of SARS CoV-2 infection in vitro [1] | IC50 [1] | % of control [2] | inhibition at 3120 µg/mL ([2]; Severe acute respiratory syndrome coronavirus 2, HEK-293T, 3.12 mg/ml)
CCCCOP(=O)(O)OC[C@H]1O[C@@H](n2cc(C)c(=O)[nH]c2=O)C[C@@H]1OP(=O)(O)OCCCC [Nu-3, butyl-phosphate-5′-thymidine-3′-phosphate-butyl] | began to regain body weight | did not show any measurable viral particles, with the exception of one hamster | – | – | – | –
CCCCOP(=O)(O)OC[C@H]1O[C@@H](n2ccc(N)nc2=O)C[C@@H]1OP(=O)(O)OCCCC [Nu-8, ((2R,3S,5R)-5-(4-amino-2-oxopyrimidin-1(2H)-yl)-3-((butoxyoxidophosphor-yl)oxy)tetrahydrofuran-2-yl)methyl butyl phosphate] | began to regain body weight | no virus detected | – | – | – | –
CCCCOP(=O)(O)OC[C@H]1O[C@@H](n2ccc(N)nc2=O)[C@H](OC)[C@@H]1OP(=O)(O)OCCCC [Nu-10, ((2R,3R,4R,5R)-5-(4-amino-2-oxopyrimidin-1(2H)-yl)-3-((butoxy(hydroxy)phosphoryl)oxy)-4-methoxytetrahydrofuran-2-yl) methyl butyl hydrogen phosphate] | – | – | neutralize SARS CoV-2 infection in vitro | 21.8 mg/mL | 3% and 8% | 97%
CCCCOP(=O)(O)OC[C@H]1O[C@@H](n2cnc3c(N)ncnc32)[C@H](OC)[C@@H]1OP(=O)(O)OCCCC [Nu-11, (2R,3R,4R,5R)-5-(6-aminopurin-9-yl)-3-((butoxy(hydroxy)phosphoryl)oxy)-4-methoxytetrahydrofuran-2-yl)methyl butyl hydrogen phosphate] | – | – | neutralize SARS CoV-2 infection in vitro | 1.15 mg/mL | – | –
